From US9061984B2 (University of Louisville Research Foundation, Inc., priority 2008, dated 2015)
pIC50: −log10 of the molar value. ≈ marks a conversion by molar mass, not a printed value. Where “and” joins values, the source holds several entries; their conditions need not be identical. Identical values can stand only once. Like-named read-outs stand apart in the source and are kept apart here.

Key:
peritoneal macrophages = experiment: Toxicity to peritoneal macrophages (Trypan Blue count); assay type: cell-based, BALB/C mouse
[1] = test system: axenic amastigotes of L. amazonensis (strain MHOM/BR/76/LTB-012)
L. amazonensis Lma CL1 = experiment: Activity against macrophages infected with Leishmania amastigotes
Experimental: (§2) A cloned line of Leishmania amazonensis(strain MHOM/BR/76/LTB-012) was used in all experiments. Axenically grown amastigote forms of L. amazonensis were maintained by weekly subpassages in MAA/20 medium (Sereno and Lemesre, Antimicrobial Agents and Chemotherapy 41, 972-976 (1997)) at 32±1° C. in 25 cm^2 tissue culture flasks. L. peruviana (strain MHOM/PE/LCA08) and L. braziliensis (strainMHOM/PE/PER006) were maintained in the promastigote stage in a biphasic medium (blood agar with 0.89% NaCl, pH 7.4) at 24° C., with sub-passage every 3 to 4 days. Promastigotes (5×10^6 parasites) were then transferred to 25 cm2 tissue culture flasks containing 5 ml of M199 medium supplemented with 10% foetal bovine serum (FBS), pH 7.4. After 4 days, exponential phase promastigotes were centrifuged for 10 minutes at 1500 g and 4° C. The supernatant was discarded and replaced by fresh M199 medium supplemented with 20% FBS, pH 5.5. Axenic amastigotes transformation was then induced by increasing the temperature to 34° C. and incubating for 96 h (Teixeira et al., Parasitology Research 88, 963-968 (2002)).
(§3) Extracted cells were immediately deposited on sterile 4×4 mm cover glasses and placed in each well of a 96-well plate. Plates were incubated for 24 h at 37° C., 5% CO2 to allow cell adhesion (Castillo et al, Journal of Ethnopharmacology 112, 410-414 (2007)). Pre-warmed complete M199 medium was used twice to remove non-adherent cells. A neutral red method (Fautz et al., Mutation Research 253, 173-179 (1991)) was employed to determine cell concentration. Approximately 7×10^4 viable cells were deposited in each well for adhesion.
(§4) Infection of macrophages by amastigotes was determined as follows. […] Twelve hours after infection, a solution of the compounds to be tested was added to the cultures at various concentrations and maintained at 37° C. in 5% CO2 for a further forty-eight hours more. The plates were fixed with methanol and stained with 10% Giemsa stain. The percentage of infected macrophages was determined microscopically at 100 times magnification. The number of intracellular amastigotes was determined in 300 cells. Following Delorenzi et al. Antimicrobial Agents and Chemotherapy, 45, 1349-1354 (2001)) the percentage of infection rate (% IR) of each culture was calculated as follows: % IR=100−(infection rate of the treated culture/infection rate of the untreated culture)×100.
(§5) All experiments were performed in triplicate. ANOVA was used to test for statistical significance of differences (Epi-Info, Statview student program). The total parasite burden was calculated as a mean number of amastigotes per cells multiplied by the number of infected macrophages.

L. braziliensis PER006 = experiment: as above; conditions: read-out: IC50 L. braziliensis PER006, 48 h
L. peruviana LCA08 = experiment: as above; conditions: read-out: IC50 L. peruviana LCA08, 48 h
Experimental: as §2, §3, §4, §5

3T3 cells = experiment: Cell growth inhibition bioassay (sulforhodamine B); assay type: cell-based, mouse; conditions: Mus musculus, NIH3T3; 48 h, SRB; read-out: GI50 in indicated cell line: 3T3
Summary of the method: (§1)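 Cells were exposed to compound alongside matched solvent controls, then stained with sulforhodamine B. Percent growth inhibition was calculated from dye absorbance against the control.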

DU145 cells = experiment: Cell growth inhibition bioassay (sulforhodamine B); assay type: cell-based, human; conditions: Homo sapiens, DU-145; 48 h, SRB; read-out: GI50 in indicated cell line: DU145
Summary of the method: as §1

H460 cells = experiment: Cell growth inhibition bioassay (sulforhodamine B); assay type: cell-based, human; conditions: Homo sapiens, NCI-H460; 48 h, SRB; read-out: GI50 in indicated cell line: H460
Summary of the method: as §1

HT-29 cells = experiment: Cell growth inhibition bioassay (sulforhodamine B); assay type: cell-based, human; conditions: Homo sapiens, HT-29; 48 h, SRB; read-out: GI50 in indicated cell line: HT-29
Summary of the method: as §1

K562 cells = experiment: Cell growth inhibition bioassay (sulforhodamine B); assay type: cell-based, human; conditions: Homo sapiens, K562; 48 h, SRB; read-out: GI50 in indicated cell line: K562
Summary of the method: as §1

M-14 cells = experiment: Cell growth inhibition bioassay (sulforhodamine B); assay type: cell-based, human; conditions: Homo sapiens, M14; 48 h, SRB; read-out: GI50 in indicated cell line: M-14
Summary of the method: as §1

MCF-7 cells = experiment: Cell growth inhibition bioassay (sulforhodamine B); assay type: cell-based, human; conditions: Homo sapiens, MCF7; 48 h, SRB; read-out: GI50 in indicated cell line: MCF-7
Summary of the method: as §1

PC3 cells = experiment: Cell growth inhibition bioassay (sulforhodamine B); assay type: cell-based; conditions: Homo sapiens, PC-3; 48 h, SRB; read-out: GI50 in indicated cell line: PC3
Experimental: The cytotoxicity of compounds was assayed as follows. […] Appropriate solvent controls were tested for comparison. The percent inhibition of cell growth relative to the control was evaluated colorimetrically using a sulforhodamine B dye by comparison to the control. The calorimetric procedure followed that published in Skehan et al., J. Nat. Cancer Inst., […], pp. 1107-1112 (1990) and Boyd & Paull, Drug Dev. Res., Vol. 34, pp. 91-109 (1995). […] The cell lines are: 3T3 cells are BALB/3T3 clone A31 embryonic mouse fibroblast cells; H460 cells are human large cell lung cancer cells; DU145 cells are human prostate carcinoma cells; MCF-7 cells are human breast adenocarcinoma cells; M-14 cells are human melanoma cells; HT-29 cells are human colon adenocarcinoma cells; PC3 cells are human prostate adenocarcinoma cells; K562 cells are human chronic myelogenous leukemia cells; and VERO cells are African Green Monkey kidney epithelial cells.

[2] = test system: Trypanosoma cruzi (Tulahuen C4); experiment: In vitro anti-T. cruzi activity (β-galactosidase CPRG colorimetric assay in VERO monolayer); assay type: cell-based; conditions: for T. cruzi Inhib. (%) / inhibition at 10 µg/mL: 10 μg/mL of each compound, 120 hours; for inhibition at 10 µg/mL / pIC50 / IC50: Trypanosoma cruzi, TULAHUEN, Vero; for inhibition at 10 µg/mL: 120 h, read-out: T. cruzi Inhib. (%); for pIC50: Table 3, read-out: IC50 T. cruzi; for IC50 / IC50 - T. cruzi: Table 2; for IC50: read-out: IC50 - T. cruzi
[3] = test system: axenic amastigotes of L. amazonensis (strain MHOM/BR/76/LTB-012); experiment: microbe, parasite or virus in culture; conditions: Leishmania amazonensis, 72 h, read-out: IC50 L. amazonensis
[4] = Cytotoxicity on VERO cells (MTT), anti-T. cruzi study; conditions: African green monkey, VERO cells, IC50 - VERO Cytotoxicity, Table 2
VERO cells = experiment: as above; conditions: for pIC50: Chlorocebus sabaeus, Vero, read-out: IC50 VERO, Table 3; for IC50 - VERO Cytotoxicity: Table 2
[5] = Mus musculus, Peritoneal macrophage, 48 h, Table 7, read-out: IC50 Macrophage
[6] = Leishmania amazonensis, Macrophage, 48 h, read-out: IC50 L. amazonensis Lma CL1
[7] = Leishmania braziliensis, Macrophage
[8] = Leishmania peruviana, Macrophage

Compound | GI50 (3T3 cells) [µM] | GI50 (DU145 cells) [µM] | GI50 (H460 cells) [µM] | GI50 (HT-29 cells) [µM] | GI50 (K562 cells) [µM] | GI50 (M-14 cells) [µM] | GI50 (MCF-7 cells) [µM] | GI50 (PC3 cells) [µM] | T. cruzi Inhib. (%) [2] | inhibition at 10 µg/mL [2] [%] | pIC50 [2] | pIC50 [3] | IC50 [2] [µg/mL] | pIC50 (peritoneal macrophages; [5]) | IC50 [4] [µg/mL] | pIC50 (L. amazonensis Lma CL1; [6]) | pIC50 (L. braziliensis PER006; [7]) | pIC50 (L. peruviana LCA08; [8]) | pIC50 (VERO cells) | also measured
C[C@@H]1[C@H](O)[C@@H](C)/C=C/C=C/C=C/C=C/C=C/C=C/C=C/[C@H](O[C@@H]2O[C@H](C)[C@@H](O)[C@H](N)[C@@H]2O)C[C@@H]2O[C@](O)(C[C@@H](O)C[C@@H](O)[C@H](O)CC[C@@H](O)C[C@@H](O)CC(=O)O[C@H]1C)C[C@H](O)[C@H]2C(=O)O [Amphotericin B, reference compound] | – | – | – | – | – | – | – | – | – | – | – | – | – | – | – | – | – | – | – | pIC50 (peritoneal macrophages): 5.27; pIC50 (peritoneal macrophages; 48 h, Table 7, read-out: IC50 Macrophage): 5.28; pIC50 [1]: 6.85; pIC50 ([1]; read-out: IC50 L. amazonensis, axenic amastigotes, 72 h, Table 7): 7.00; pIC50 ([1]; read-out: L. amazonensis IC50, Table 8b): 7.00; pIC50 (L. amazonensis Lma CL1; read-out: IC50 L. amazonensis Lma CL1, infected macrophages, 48 h): 6.40; pIC50 (L. braziliensis PER006; infected macrophages): 7.00; pIC50 (L. peruviana LCA08; infected macrophages): 7.00
O=c1[nH]cc(F)c(=O)[nH]1 [Compound 5FU, 5-Fluorouracil, reference compound] | < 1.54 | 15.4 | 4.1 | 8.9 | 16.7 | 22.4 | 6.5 | 14.6 | – | – | – | – | – | – | – | – | – | – | – | –
COc1ccc(/C=C/C(=O)c2c(O)cc(OC)cc2OC)cc1 [Compound I-01, (2E)-1-(2-Hydroxy-4,6-dimethoxyphenyl)-3-(4-methoxyphenyl)-2-propen-1-one] | 17.2 | 30.8 | 24.1 | 45.3 | 20.5 | 22.5 | 17.5 | 15.2 | 41.36% | 29 | < 4.60 | 4.76 | – | – | – | – | – | – | – | –
COc1cc(O)c(C(=O)/C=C/c2ccc3c(c2)OCO3)c(OC)c1 [Compound I-02, (2E)-3-(1,3-Benzodioxol-5-yl)-1-(2-hydroxy-4,6-dimethoxyphenyl)-2-propen-1-one] | 39 | > 190 | > 190 | > 190 | 18.9 | > 190 | 140 | 118 | 11.77% | 22.8 | < 4.60 | < 3.52 | – | – | – | – | – | – | – | –
COc1ccc(/C=C/C(=O)c2c(O)cc(O)cc2OC)cc1 [Compound I-05, (E)-1-(2,4-Dihydroxy-6-methoxyphenyl)-3-(4-methoxyphenyl)-2-propen-1-one] | 6.7 | 9 | 14 | 21.6 | 17 | 19.6 | 17.3 | 19.3 | 68.88% and 38.57% | – | < 4.60 | 5.00 | 5.98 | 3.78 | 5 (≈ 16.6 µM) | 4.84 | 5.12 | 4.64 | – | –
COc1cc(O)cc(O)c1C(=O)/C=C/c1ccc2c(c1)OCO2 [Compound I-06, (2E)-3-(1,3-Benzodioxol-5-yl)-1-(2,4-dihydroxy-6-methoxyphenyl)-2-propen-1-one] | 5.1 | 12.4 | 15.6 | 20.7 | 16.2 | 22.6 | 20.4 | 18.5 | 49.61% and 69.78% | – | 5.03 | 5.39 | 2.97 | 3.80 | 8 (≈ 25.5 µM) | 4.78 | 5.07 | 4.71 | 4.59 | –
C=CCOc1cc(OC)c(C(=O)/C=C/c2ccc(OC)cc2)c(OCC=C)c1 [Compound I-10, (2E)-1-[2-Methoxy-4,6-bis(2-propenyloxy)phenyl]-3-(4-methoxyphenyl)-2-propen-1-one] | 41 | 21 | 20 | 28.4 | 16.6 | 27.6 | 19.5 | 18.1 | 62.86% | 63.5 | 4.67 | 5.26 | 7.28 | 4.73 | 48 (≈ 126 µM) | – | – | – | 4.00 | IC50 - T. cruzi [2]: 8.14 µg/mL (≈ 21.4 µM); IC50 - VERO Cytotoxicity (VERO cells): 38.00 µg/mL (≈ 99.9 µM)
C=CCOc1cc(OC)c(C(=O)/C=C/c2ccc3c(c2)OCO3)c(OCC=C)c1 [Compound I-19, (2E)-3-(1,3-Benzodioxol-5-yl)-1-[2-methoxy-4,6-bis(2-propenyloxy)phenyl]-2-propen-1-one] | 31.7 | 17.5 | 14.5 | 24.1 | 12.2 | 17.2 | 10.9 | 9.6 | 58.82% | 74.1 | 4.87 | 5.18 | 7.33 | – | 49 (≈ 124 µM) | – | – | – | 4.13 | IC50 - T. cruzi [2]: 5.35 µg/mL (≈ 13.6 µM); IC50 - VERO Cytotoxicity (VERO cells): 29.00 µg/mL (≈ 73.5 µM)
C=CCOc1cc(OC)c(C(=O)/C=C/c2ccccn2)c(OCC=C)c1 [Compound I-27, (2E)-1-[2-Methoxy-4,6-bis(2-propenyloxy)phenyl]-3-(2-pyridinyl)-2-propen-1-one] | – | – | – | – | – | – | – | – | – | 77.2 | 5.72 | 5.96 | 0.67 | 4.90 | 1 (≈ 2.85 µM) | 6.05 | 5.85 | 5.40 | 5.55 | Reduction of parasite burden (column After 7 weeks, analyzed after 6 weeks treatment) (L. amazonensis; 5 mg/kg/day intralesional, after 6 weeks treatment (footnote d)): 25^d %; Lesion diameter (L. amazonensis; compounds 5 mg/kg/day, Glucantime 33 mg/kg/day, intralesional): 4.1 mm; Reduction of parasite burden After 4 weeks (L. amazonensis; compounds 5 mg/kg/day, Glucantime 33 mg/kg/day, intralesional, after 4 weeks): −4%; pIC50 (L. amazonensis Lma CL1; Leishmania amazonensis, Macrophage, read-out: bioactivities (IC50) in macrophage-infected model): 5.40 to 6.05
